Measurements: article PMC11356819 (Molecules, 2024)

Assays:
U87-mIDH tumors = assay: PET imaging and 2TCM kinetic modelling of subcutaneous U87-mIDH tumors; type: in vivo
Description: (§1) The in vivo tumor uptake and mIDH selectivity of [^18F]4 were investigated by small animal PET imaging in CB17-SCID mice bearing subcutaneous U87-WT and U87-mIDH tumors, which were implanted in the right and left shoulder region, respectively (Figure 6).
(§2) Although the use of an image-derived input function instead of an invasive arterial input function could introduce some degree of systematic bias (due to, e.g., a lack of correction for spill-over and metabolism), this should affect the parameter estimation for both tumors in a given animal in the same manner and therefore have little impact on inter-tumor comparisons.
(§3) Six male CB17-SCID mice (24–26 g) were used for the subcutaneous tumor model. Twenty-four hours before tumor implantation, the animals were injected (i.p.) with 20 µL anti-asialo GM1 rabbit (Fujifilm Wako Chemicals Europe GmbH, Neuss, Germany) in 0.9% NaCl (total volume: 100 µL) to promote tumor cell survival and growth through a temporary reduction in natural killer cell activity. For tumor inoculation, suspensions of 5 × 10^6 tumor cells in 75 µL culture medium and 75 µL Corning Matrigel (Merck, Darmstadt, Germany) were injected subcutaneously into the right (U87-WT cells) and left (U87-mIDH cells) shoulder region.
(§4) The mice were anesthetized with isoflurane (5% for induction, 2% for maintenance) in O2/air (3:7), and a catheter for tracer injection was inserted into the lateral tail vein. They were placed on an animal holder (Medres, Cologne, Germany) and fixed with a tooth bar in a respiratory mask. Body temperature was maintained at 37 °C by warming the animal bed. Eyes were protected from drying with Bepanthen eye and nose ointment (Bayer, Leverkusen, Germany). Respiratory rate was monitored and maintained at around 40–60 breaths per minute by adjusting the isoflurane concentration. A PET scan in list mode was conducted using a Focus 220 micro PET scanner (CTI-Siemens, Erlangen, Germany) with a resolution at the center of the field of view of 1.4 mm. Data acquisition started with intravenous tracer injection and ended after 120 min. This was followed by a 10 min transmission scan using a ^57Co point source for attenuation correction. After the scan was completed, the catheter was removed and the animals were allowed to wake up in their home cage. Data were histogrammed in three ways: (1) 4 × 30 min frames for visual display, (2) 28 frames (2 × 1 min, 2 × 2 min, 6 × 4 min, 18 × 5 min) for determination of time–activity curves, (3) 53 frames (12 × 10 s, 6 × 30 s, 15 × 1 min, 20 × 5 min) for kinetic modelling. Full 3D rebinning was followed by an iterative OSEM3D/MAP reconstruction algorithm with attenuation and decay correction. The resulting voxel sizes were 0.47 mm × 0.47 mm × 0.80 mm.

U87-WT tumors = assay: PET imaging and 2TCM kinetic modelling of subcutaneous U87-WT tumors; type: in vivo
Description: as §1, §2, §3, §4

## COc1cc(NCc2cc3cc([18F])ccc3[nH]c2=O)ccc1C#N [[^18F]4]
U87-mIDH tumors; 0–30 min
  SUVbw U87-mIDH: 31 ± 3
U87-mIDH tumors; 30–60 min
  SUVbw U87-mIDH: 24 ± 2
U87-mIDH tumors; 60–90 min
  SUVbw U87-mIDH: 18 ± 1
U87-mIDH tumors; 90–120 min
  SUVbw U87-mIDH: 16 ± 1
U87-mIDH tumors; U87-mIDH tumor, 2TCM, n = 5
  K1: 0.141 ± 0.047 mL/ccm/min
  K1/k2: 0.246 ± 0.063 mL/ccm
  VS (specific distribution volume): 0.225 ± 0.070 mL/ccm
  VT (total distribution volume): 0.471 ± 0.084 mL/ccm
  k2: 0.578 ± 0.173 min⁻¹
  k3: 0.057 ± 0.040 min⁻¹
  k3/k4, BPND (non-displaceable binding potential): 0.962 ± 0.399 1/1
  k4: 0.053 ± 0.023 min⁻¹
U87-mIDH tumors; peak after 8 min, n = 3
  max. SUVbw U87-mIDH tumors: 35 ± 8
U87-WT tumors; 0–30 min
  Ratio (WT/mIDH) of SUVbw: 1.1
  SUVbw U87-WT: 35 ± 4
U87-WT tumors; 30–60 min
  Ratio (WT/mIDH) of SUVbw: 1.7
  SUVbw U87-WT: 42 ± 9
U87-WT tumors; 60–90 min
  Ratio (WT/mIDH) of SUVbw: 1.9
  SUVbw U87-WT: 36 ± 10
U87-WT tumors; 90–120 min
  Ratio (WT/mIDH) of SUVbw: 1.9
  SUVbw U87-WT: 30 ± 10
U87-WT tumors; U87-WT tumor, 2TCM, n = 5
  K1: 0.174 ± 0.068 mL/ccm/min
  K1/k2: 0.345 ± 0.172 mL/ccm
  VS (specific distribution volume): 0.576 ± 0.143 mL/ccm
  VT (total distribution volume): 0.921 ± 0.250 mL/ccm
  k2: 0.553 ± 0.238 min⁻¹
  k3: 0.089 ± 0.059 min⁻¹
  k3/k4, BPND (non-displaceable binding potential): 1.874 ± 0.653 1/1
  k4: 0.044 ± 0.022 min⁻¹
U87-WT tumors; after 38 min, n = 3
  max. SUVbw U87-WT tumors: 45 ± 8
